Here are results for two compounds from patent publication US9982026B2, “Compositions and methods for assessing and treating adrenal diseases and disorders” (YALE UNIVERSITY, priority 2011, dated 2018).

In assay [1] the target is KCNJ3/KCNJ5WT cotransfected with the dopamine D2 receptor in 293T cells (Homo sapiens, UniProt P14416). The note with it: 1 μM dopamine, current amplitudes at −100 mV, before vs after addition, n=4.
Method: Representative whole-cell recordings of 293T cells cotransfected with KCNJ3/KCNJ5WT and the dopamine D2 receptor are shown. The pipette holding potential was 0 mV before clamping, and the cell was clamped from −100 to 60 mV with 20 mV increments before (left) and after (right) addition of 1 μM dopamine. The extracellular solution contained 140 mM NaCl, 5 mM KCl, 1.8 mM MgCl2, 1.8 mM CaCl2, and 10 mM HEPES, pH 7.4, while the intracellular solution contained 140 mM KCl, 4 mM MgCl2, 1 mM CaCl2, 1 mM EGTA, and 5 mM HEPES, pH 7.4. […] (FIG. 12B) Mean±SEM of current amplitudes measured at −100 mV before (control) and after addition of dopamine as in FIG. 12A (n=4).
293T cells were transfected with plasmid DNA using TransIT®-293 Transfection Reagent (Mirus) according to the manufacturer's instructions. Empty vector was used as a control. Cells were examined one day after transient transfection. Standard perforated whole-cell patch clamp recordings were performed on GFP-positive cells using an Axopatch 200A (Axon Instruments) amplifier. […]
Cells were cotransfected with 0.8 μg wild-type or mutant KCNJ5 and 0.5 μg KCNJ3 cDNA. […] Endogenous currents of 293T cells transfected with empty vector were measured from −100 to 60 mV. […] Data were analyzed by a combination of Axon Clampfit9.2 (Molecular Devices) and SigmaPlot (Jandel Scientific) programs. Data from 3-7 cells were analyzed for each construct. […]
The test system of assay [2] is KCNJ3 plus mutant KCNJ5 in 293T cells. Nature of the assay: Whole-cell patch clamp of KCNJ3/KCNJ5 heterotetramers, Ba2+ block. The assay is classed as cell-based, human. Conditions: 1 mM BaCl2 in extracellular solution; mutant channels G151R, L168R, T158A. On the procedure:
(§1) FIG. 3A depicts the results of representative whole-cell recordings of 293T cells transfected with empty vector or KCNJ3 plus WT or mutant KCNJ5. […] Middle row: 1 mM BaCl2 was added. Bottom row: 140 mM choline chloride was substituted for extracellular NaCl. FIG. 3B depicts the current-voltage relationships from cells expressing indicated constructs (n=3 to 7 for each construct). Reversal potentials in control conditions are indicated. […] FIG. 3C depicts that the K+:Na+ permeability ratios calculated from the reversal potentials show loss of ion selectivity of the mutant channels. Data in FIGS. 3B and 3C are shown as mean±SEM.
(§2) Empty vector was used as a control. Cells were examined one day after transient transfection.
(§3) 1 mM BaCl2 was used to block Kir channels. […] All data are shown as mean±SEM.
For orientation: Patch clamp records ionic current or voltage across a cell membrane.

Assay [3] has as its target T1, KCNJ5 WT homotetramers in 293T cells (Homo sapiens, UniProt P48544).
T1 construct: host or cells: 293T
T1 sequence (P48544 1-419): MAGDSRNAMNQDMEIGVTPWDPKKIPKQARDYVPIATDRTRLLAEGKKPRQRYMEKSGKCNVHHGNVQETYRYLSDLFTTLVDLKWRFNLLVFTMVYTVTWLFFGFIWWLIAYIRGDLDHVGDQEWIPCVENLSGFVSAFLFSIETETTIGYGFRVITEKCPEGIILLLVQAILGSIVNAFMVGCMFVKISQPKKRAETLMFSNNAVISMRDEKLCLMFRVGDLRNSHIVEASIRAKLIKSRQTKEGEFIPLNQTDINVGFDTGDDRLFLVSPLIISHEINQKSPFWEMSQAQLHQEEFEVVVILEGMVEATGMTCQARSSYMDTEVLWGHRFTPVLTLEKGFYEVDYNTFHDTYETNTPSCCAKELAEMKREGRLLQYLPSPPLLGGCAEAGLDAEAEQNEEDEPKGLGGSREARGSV
Nature of the assay: Whole-cell patch clamp of KCNJ5 homotetramers, Ba2+ block. Type of assay: cell-based. The note with it: 1 mM BaCl2 in extracellular fluid, symmetric high K+ solutions. The protocol:
Because of low current amplitude of homotetrameric channels, currents were measured under symmetrical high Na+ or high K+ conditions, which increases current amplitude (Owen et al., 1999, Exp Physiol 84:471-488; Andreoli, et al., Eds., Molecular Biology of Membrane Transport Disorders (Plenum Press, New York, ed. 2, 1996), chap. 5) (FIGS. 13A-13D); reversal potentials and permeability ratios were determined using physiological solutions (FIGS. 13E, 13F). (FIG. 13A) Representative whole-cell recordings showing K+ and Na+ currents in 293T cells transfected with KCNJ5, KCNJ5G151R, KCNJ5L168R, and KCNJ5T158A. […] (FIGS. 13B, 13C) Current-voltage relationships from cells expressing the indicated constructs with symmetric high K+ or high Na+ solutions as in FIG. 13A. […] Relative permeabilities of K+:Na+ were determined in physiologic solutions as described in FIG. 13E. (FIG. 13E) Reversal potential of 293T cells transfected with WT or mutant KCNJ5 using physiological solutions. […] The reversal potential for the homotetramers was determined by a ramp protocol ranging from −100 to +100 mV after forming a high resistance seal. […]
To analyze homomeric wild-type or mutant KCNJ5 currents, 1 μg of cDNA was transfected. […] For each construct, currents were measured in two conditions. […] The reversal potential was determined using a ramp protocol ranging from −100 to +100 mV after forming a high resistance seal. […]

The target of assay [4] is T2, KCNJ3/KCNJ5WT in 293T cells (Homo sapiens, UniProt P48544+P48549).
T2 construct: #SC118769 (KCNJ3); host or cells: 293T
T2 sequence (P48544 1-419): T1 sequence (P48544 1-419)
T2 sequence (P48549 1-501): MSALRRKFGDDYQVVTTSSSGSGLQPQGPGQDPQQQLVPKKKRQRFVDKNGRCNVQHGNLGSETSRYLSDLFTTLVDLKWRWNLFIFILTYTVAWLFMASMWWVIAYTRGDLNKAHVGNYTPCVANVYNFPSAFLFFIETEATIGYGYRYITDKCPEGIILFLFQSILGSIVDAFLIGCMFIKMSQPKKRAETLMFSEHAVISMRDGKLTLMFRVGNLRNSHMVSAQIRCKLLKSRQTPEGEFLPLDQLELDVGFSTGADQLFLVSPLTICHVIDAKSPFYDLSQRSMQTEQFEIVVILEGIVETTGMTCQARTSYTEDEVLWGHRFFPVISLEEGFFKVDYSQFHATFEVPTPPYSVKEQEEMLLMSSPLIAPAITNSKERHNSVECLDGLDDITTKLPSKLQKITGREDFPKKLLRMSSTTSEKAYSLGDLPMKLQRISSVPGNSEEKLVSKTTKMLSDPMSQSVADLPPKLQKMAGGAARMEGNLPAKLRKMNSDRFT
Nature of the assay: Whole-cell patch clamp of KCNJ3/KCNJ5 heterotetramers, Ba2+ block. The note with it: 1 mM BaCl2 in extracellular solution; listed as Ba2+. Type of assay: cell-based. The protocol: as §1, §2, §3

In assay [5] the target is T3, KCNJ3/KCNJ5G151R in 293T cells (Homo sapiens, UniProt P48544+P48549, G151R).
T3 construct: #SC118769 (KCNJ3); host or cells: 293T
T3 sequence (P48544 1-419 G151R): T1 sequence (P48544 1-419) with G151R
T3 sequence (P48549 1-501): T2 sequence (P48549 1-501)
The assay is described as above. Type of assay: cell-based. Conditions: 1 mM BaCl2 in extracellular solution. On the procedure:
as §1, §2, §3

Where a chain is given by its changes, count along the chain named. Entries after “also recorded” stand apart in the source; their conditions may differ.

Chain of KCNJ3/KCNJ5WT cotransfected with the dopamine D2 receptor in 293T cells (P14416 whole entry): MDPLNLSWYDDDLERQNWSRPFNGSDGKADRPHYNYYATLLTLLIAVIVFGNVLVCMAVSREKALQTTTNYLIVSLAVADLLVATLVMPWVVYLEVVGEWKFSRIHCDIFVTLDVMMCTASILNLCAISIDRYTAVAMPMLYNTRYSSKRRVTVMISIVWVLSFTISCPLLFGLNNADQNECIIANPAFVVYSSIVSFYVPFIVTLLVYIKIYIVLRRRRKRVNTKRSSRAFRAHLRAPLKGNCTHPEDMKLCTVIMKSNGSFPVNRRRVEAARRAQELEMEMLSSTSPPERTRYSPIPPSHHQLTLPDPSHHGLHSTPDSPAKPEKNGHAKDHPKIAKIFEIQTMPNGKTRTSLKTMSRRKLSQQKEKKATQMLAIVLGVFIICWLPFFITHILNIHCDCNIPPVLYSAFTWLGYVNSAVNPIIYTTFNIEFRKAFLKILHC

`Cl.NCCc1ccc(O)c(O)c1` [Dopamine, dopamine hydrochloride]: in assay [1], the increase of current is recorded as approximately 50%.

As to `[Ba+2].[Cl-].[Cl-]` [BaCl2], the “inhibition of current by Ba2+” value in assay [2] is “variable inhibition”; in assay [4], “inhibited; also recorded: inhibits the WT channel”; in assay [5], “loss of inhibition”. The “inhibition of channel activity” value in assay [3] is listed as “inhibited WT channel activity”.
